From the supplement of paper PMC8671470 come the findings set out here.

What all share (assay): cell viability (% survival relative to DMSO control, bortezomib = 0%); higher = less cytotoxic
What all share (conditions): 72 h

For one experiment, the system named is BV-173. In outline:
(§1)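 Fifteen myeloid leukaemia cell lines (10 AML, 5 CML) were seeded at a density titrated to the linear growth range. They went into 384-well plates with compounds pre-printed at 1, 10, 100, 1000 or 10000 nM in duplicate. After 72 h at 37 °C with 5% CO2, viability was read by CellTiter-Glo luminescence. Values are percent survival, with vehicle set to 100% and a 10 µM positive control to 0%, averaged over the duplicates.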

A further experiment concerns HEL. Summed up: as §1
For the next experiment, the system named is ML-2. In outline: as §1
The test system of the next experiment is MOLM-13. Summed up: as §1

As a reminder, the cell viability is a read-out of living cells in per cent, often relative to untreated cells. In the case of `[N-]=[N+]=CC(=O)CC[C@H](N)C(=O)O` [6-Diazo-5-oxo-L-norleucine], the cell viability came out at 94.8% with BV-173 (1 nM); 89.6% in the experiment with BV-173 (10 nM); 107% with BV-173 (100 nM); 93.4% in the experiment on BV-173 (1000 nM); 96.5% in the experiment on BV-173 (10000 nM); 98.6% with HEL (1 nM). The cell viability in the experiment on HEL (10 nM) was 109%; in the experiment with HEL (100 nM), 98.5%; in the experiment with HEL (1000 nM), 95.1%; in the experiment on HEL (10000 nM) it was 96.6%; with ML-2 (1 nM) it was 95.1%; in the experiment on ML-2 (10 nM) it was 95.3%. In addition, the cell viability in the experiment on ML-2 (100 nM) turned out to be 98.3%; with ML-2 (1000 nM) it was 116%; in the experiment on ML-2 (10000 nM), 110%; in the experiment on MOLM-13 (1 nM), 106%; with MOLM-13 (10 nM), 111%; in the experiment on MOLM-13 (100 nM) it was 119%. Moreover, the cell viability in the experiment with MOLM-13 (1000 nM) was 101%; in the experiment with MOLM-13 (10000 nM) it was 116%.

For the molecule `Sc1ncnc2nc[nH]c12` [6-mercaptopurine], the cell viability in the experiment with BV-173 (1 nM) came to 103%; in the experiment with BV-173 (10 nM) it was 93.8%; in the experiment on BV-173 (100 nM) it was 86.8%; in the experiment on BV-173 (1000 nM), 38.8%; with BV-173 (10000 nM), 12.3%; in the experiment on HEL (1 nM), 96.5%. Besides, the cell viability with HEL (10 nM) worked out at 98.2%; in the experiment with HEL (100 nM) it was 95.6%; in the experiment on HEL (1000 nM), 70.6%; in the experiment on HEL (10000 nM), 7.42%; with ML-2 (1 nM), 111%; in the experiment on ML-2 (10 nM), 91.3%. Further, the cell viability in the experiment on ML-2 (100 nM) worked out at 87.9%; with ML-2 (1000 nM), 56.1%; with ML-2 (10000 nM), 13.5%; in the experiment on MOLM-13 (1 nM) it was 117%; with MOLM-13 (10 nM) it was 87.6%; in the experiment on MOLM-13 (100 nM), 108%. Also, the cell viability in the experiment with MOLM-13 (1000 nM) is 53%; in the experiment on MOLM-13 (10000 nM) it was 16%.

`O=C(O)CC[C@H](NC(=O)c1ccc([N+](=O)[O-])cc1)C(=O)O` [(S)-2-(4-Nitrobenzamido)pentanedioic acid]: the cell viability in the experiment on BV-173 (1 nM) is 96.2%; with BV-173 (10 nM), 108%; with BV-173 (100 nM), 92.8%; with BV-173 (1000 nM) it was 104%; in the experiment on BV-173 (10000 nM), 80.7%; in the experiment on HEL (1 nM), 89.9%. The cell viability came out at 107% in the experiment on HEL (10 nM); 94% in the experiment with HEL (100 nM); 96.3% in the experiment on HEL (1000 nM); 90.4% in the experiment on HEL (10000 nM); 103% with ML-2 (1 nM); 91.2% in the experiment with ML-2 (10 nM). Further, the cell viability in the experiment with ML-2 (100 nM) was found to be 101%; in the experiment on ML-2 (1000 nM), 93.7%; in the experiment with ML-2 (10000 nM) it was 95.4%; in the experiment with MOLM-13 (1 nM) it was 89%; in the experiment with MOLM-13 (10 nM), 124%; in the experiment with MOLM-13 (100 nM) it was 94.6%. Also, the cell viability in the experiment with MOLM-13 (1000 nM) came to 98.5%; in the experiment with MOLM-13 (10000 nM), 105%.

As to `O=C1Nc2ccccc2/C1=C\NCCc1ccc(O)c(O)c1` [AC1NZZMF], the cell viability in the experiment with BV-173 (1 nM) is 99.7%; in the experiment on BV-173 (10 nM), 103%; with BV-173 (100 nM), 104%; in the experiment with BV-173 (1000 nM), 94.1%; with BV-173 (10000 nM), 60.9%; with HEL (1 nM), 101%. For the same molecule, the cell viability was determined as 99.5% in the experiment with HEL (10 nM); 104% in the experiment with HEL (100 nM); 112% with HEL (1000 nM); 96.9% in the experiment with HEL (10000 nM); 113% in the experiment on ML-2 (1 nM); 111% in the experiment with ML-2 (10 nM). In addition, the cell viability is 101% in the experiment on ML-2 (100 nM); 95.4% with ML-2 (1000 nM); 75.9% in the experiment with ML-2 (10000 nM); 97.6% in the experiment on MOLM-13 (1 nM); 104% with MOLM-13 (10 nM); 101% in the experiment on MOLM-13 (100 nM). Also, the cell viability was 108% with MOLM-13 (1000 nM) and 88.9% with MOLM-13 (10000 nM).

Regarding `Cc1ccc(S(=O)(=O)NC2c3ccccc3Oc3ccccc32)cc1` [AH-7614], the cell viability with BV-173 (1 nM) worked out at 87.1%; with BV-173 (10 nM) it was 91.2%; in the experiment with BV-173 (100 nM) it was 102%; in the experiment with BV-173 (1000 nM), 98.4%; in the experiment with BV-173 (10000 nM), 104%; in the experiment with HEL (1 nM) it was 107%. Besides, the cell viability came out at 96.9% in the experiment with HEL (10 nM); 103% in the experiment on HEL (100 nM); 107% with HEL (1000 nM); 98.9% in the experiment with HEL (10000 nM); 97.3% in the experiment on ML-2 (1 nM); 99.2% in the experiment with ML-2 (10 nM). Further, the cell viability with ML-2 (100 nM) amounted to 104%; with ML-2 (1000 nM) it was 104%; in the experiment with ML-2 (10000 nM), 114%; with MOLM-13 (1 nM) it was 95.3%; in the experiment on MOLM-13 (10 nM) it was 113%; in the experiment on MOLM-13 (100 nM), 111%. Further, the cell viability in the experiment with MOLM-13 (1000 nM) was 102%; in the experiment on MOLM-13 (10000 nM) it was 93.7%.

Take `C[C@]12CC[C@H](O)CC1=CC[C@@H]1[C@@H]2CC[C@]2(C)C(c3cccnc3)=CC[C@@H]12` [Abiraterone]: the cell viability in the experiment on BV-173 (1 nM) came to 91.8%; with BV-173 (10 nM), 96.8%; with BV-173 (100 nM), 93.5%; with BV-173 (1000 nM), 116%; with BV-173 (10000 nM), 108%; with HEL (1 nM), 113%. Also, the cell viability stood at 109% in the experiment on HEL (10 nM); 110% in the experiment with HEL (100 nM); 112% in the experiment with HEL (1000 nM); 111% with HEL (10000 nM); 116% in the experiment on ML-2 (1 nM); 97.2% with ML-2 (10 nM). For the same molecule, the cell viability in the experiment with ML-2 (100 nM) was 101%; in the experiment on ML-2 (1000 nM), 118%; in the experiment with ML-2 (10000 nM) it was 110%; with MOLM-13 (1 nM), 113%; in the experiment with MOLM-13 (10 nM), 122%; with MOLM-13 (100 nM) it was 111%. Also, the cell viability was 117% with MOLM-13 (1000 nM) and 69.9% with MOLM-13 (10000 nM).

In the case of `O=C(COc1ccc(C(=O)c2ccccc2)cc1)NC1CCN(Cc2ccccc2)CC1` [AdipoRon], the cell viability with BV-173 (1 nM) was found to be 84%; with BV-173 (10 nM), 105%; in the experiment with BV-173 (100 nM), 96.7%; in the experiment with BV-173 (1000 nM), 87%; with BV-173 (10000 nM), 52.9%; in the experiment with HEL (1 nM), 94.5%. Further, the cell viability turned out to be 96.6% in the experiment with HEL (10 nM); 96.6% with HEL (100 nM); 97.5% in the experiment with HEL (1000 nM); 85.4% in the experiment on HEL (10000 nM); 84% with ML-2 (1 nM); 107% with ML-2 (10 nM). Further, the cell viability with ML-2 (100 nM) is 94.5%; in the experiment on ML-2 (1000 nM) it was 97.6%; with ML-2 (10000 nM), 65.9%; in the experiment on MOLM-13 (1 nM) it was 94%; in the experiment on MOLM-13 (10 nM), 106%; with MOLM-13 (100 nM), 93.6%. The cell viability with MOLM-13 (1000 nM) is 105%; in the experiment with MOLM-13 (10000 nM), 76.5%.
